Molecules are shown by their SMILES.

This assay concerns the target T1, purified human HDAC6 (Homo sapiens, UniProt Q9UBN7).
T1 construct: purchased BPS Bioscience 5006
T1 sequence (Q9UBN7 1-1215): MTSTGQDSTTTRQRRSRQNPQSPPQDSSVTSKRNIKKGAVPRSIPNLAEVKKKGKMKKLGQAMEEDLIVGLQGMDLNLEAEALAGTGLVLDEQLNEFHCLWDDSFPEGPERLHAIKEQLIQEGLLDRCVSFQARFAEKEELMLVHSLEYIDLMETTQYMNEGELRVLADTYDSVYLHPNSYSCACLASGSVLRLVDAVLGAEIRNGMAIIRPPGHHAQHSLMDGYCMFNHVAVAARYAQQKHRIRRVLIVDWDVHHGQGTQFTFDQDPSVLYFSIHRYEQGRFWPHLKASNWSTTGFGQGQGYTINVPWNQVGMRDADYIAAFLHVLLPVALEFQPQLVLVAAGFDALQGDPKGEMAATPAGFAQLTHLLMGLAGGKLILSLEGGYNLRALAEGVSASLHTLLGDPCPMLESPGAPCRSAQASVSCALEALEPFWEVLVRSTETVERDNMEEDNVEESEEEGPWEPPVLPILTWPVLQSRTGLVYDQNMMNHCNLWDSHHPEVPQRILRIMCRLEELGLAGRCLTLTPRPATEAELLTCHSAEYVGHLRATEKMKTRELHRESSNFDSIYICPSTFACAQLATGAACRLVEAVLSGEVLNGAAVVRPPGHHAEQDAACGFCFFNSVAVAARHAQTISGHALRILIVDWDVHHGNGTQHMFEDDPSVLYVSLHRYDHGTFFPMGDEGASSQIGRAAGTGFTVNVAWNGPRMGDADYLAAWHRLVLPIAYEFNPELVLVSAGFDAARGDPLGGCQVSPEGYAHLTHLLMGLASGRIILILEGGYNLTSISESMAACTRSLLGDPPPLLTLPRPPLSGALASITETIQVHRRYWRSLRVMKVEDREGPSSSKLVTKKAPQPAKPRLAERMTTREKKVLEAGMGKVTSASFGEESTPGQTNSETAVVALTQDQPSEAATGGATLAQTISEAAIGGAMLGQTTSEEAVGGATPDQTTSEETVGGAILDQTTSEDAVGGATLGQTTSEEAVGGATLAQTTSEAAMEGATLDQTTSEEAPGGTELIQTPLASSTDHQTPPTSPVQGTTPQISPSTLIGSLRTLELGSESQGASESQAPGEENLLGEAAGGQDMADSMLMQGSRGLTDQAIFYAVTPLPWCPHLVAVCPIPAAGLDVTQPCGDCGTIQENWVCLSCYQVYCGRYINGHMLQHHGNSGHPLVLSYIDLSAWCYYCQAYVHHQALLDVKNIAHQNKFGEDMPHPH
Nature of the assay: HDAC6 Enzyme Assay. It counts as biochemical. As to conditions: test compound at 1.235 μM; substrate Ac-Arg-Gly-Lys(Ac)-AMC, 1 hour at 30° C.; read-out: Percent Inhibition at 1.235 μM. The protocol: To measure the inhibition of HDAC6 activity, purified human HDAC6 (BPS Bioscience; Cat. No. 5006) is incubated with substrate Ac-Arg-Gly-Lys(Ac)-AMC peptide (Bachem Biosciences; Cat. No. I-1925) for 1 hour at 30° C. in the presence of test compounds or vehicle DMSO control. The reaction is stopped with the HDAC inhibitor trichostatin A (Sigma; Cat. No. T8552) and the amount of Arg-Gly-Lys-AMC generated is quantitated by digestion with trypsin (Sigma; Cat. No. T1426) and subsequent measurement of the amount of AMC released using a fluorescent plate reader (Pherastar, BMG Technologies) set at Ex 340 nm and Em 460 nm. Concentration response curves are generated by calculating the fluorescence increase in test compound-treated samples relative to DMSO-treated controls, and percentage inhibition values at a single concentration or enzyme inhibition (IC50) values are determined from those curves. One skilled in the art will appreciate that the values generated either as percentage inhibition at a single concentration or IC50 values are subject to experimental variation.
The inhibition is the drop in the measured response relative to a control, in per cent. For the compound `CC(C)(C)NC(=O)N1CCc2nc(C(=O)NO)ccc2C1` [Compound I-45, N^6-(tert-butyl)-N^2-hydroxy-7,8-dihydro-1,6-naphthyridine-2,6(5H)-dicarboxamide], the inhibition at 1.235 µM is 39%.

With `O=C(NO)c1cnc2c(c1)CN(C(=O)c1ccc(Cl)cc1)CC2` [Compound I-12, 6-(4-chlorobenzoyl)-N-hydroxy-5,6,7,8-tetrahydro-1,6-naphthyridine-3-carboxamide], the inhibition at 1.235 µM came to 94.5%.

Take `Cn1cccc1C(=O)N1CCc2nc(C(=O)NO)ccc2C1` [Compound I-11, N-hydroxy-6-[(1-methyl-1H-pyrrol-2-yl)carbonyl]-5,6,7,8-tetrahydro-1,6-naphthyridine-2-carboxamide]: the inhibition at 1.235 µM worked out at 73.9%.

As to `CCCCS(=O)(=O)N1CCc2ncc(C(=O)NO)cc2C1` [Compound I-58, 6-(butylsulfonyl)-N-hydroxy-5,6,7,8-tetrahydro-1,6-naphthyridine-3-carboxamide], the inhibition at 1.235 µM was 94.5%. Regarding `O=C(NO)c1cnc2c(c1)CN(C(=O)C13CC4CC(CC(C4)C1)C3)CC2` [Compound I-31, 6-[1-adamantylcarbonyl]-N-hydroxy-5,6,7,8-tetrahydro-1,6-naphthyridine-3-carboxamide], the inhibition at 1.235 µM came to 93.8%.

Regarding `O=C(NO)c1ccc2c(n1)CCN(S(=O)(=O)c1ccc(C(F)(F)F)cc1)C2` [Compound I-59, N-hydroxy-6-{[4-(trifluoromethyl)phenyl]sulfonyl}-5,6,7,8-tetrahydro-1,6-naphthyridine-2-carboxamide], the inhibition at 1.235 µM amounted to 67.4%. Turning to `CCCCOc1ccc(S(=O)(=O)N2CCc3ncc(C(=O)NO)cc3C2)cc1` [Compound I-57, 6-[(4-butoxyphenyl)sulfonyl]-N-hydroxy-5,6,7,8-tetrahydro-1,6-naphthyridine-3-carboxamide], the inhibition at 1.235 µM worked out at 94.1%.

Take `CC(=O)N1CCc2nc(C(=O)NO)ccc2C1` [Compound I-2, 6-acetyl-N-hydroxy-5,6,7,8-tetrahydro-1,6-naphthyridine-2-carboxamide]: the inhibition at 1.235 µM amounted to 34.1%. The value for `O=C(NO)c1ccc2c(n1)CCN(C(=O)NCc1ccccc1)C2` [Compound I-25, N^6-benzyl-N^2-hydroxy-7,8-dihydro-1,6-naphthyridine-2,6(5H)-dicarboxamide] was 60.4%; that for `O=C(NO)c1cnc2c(c1)CN(C(=O)c1[nH]c3ccccc3c1-c1ccccc1)CC2` [Compound I-29, N-hydroxy-6-[(3-phenyl-1H-indol-2-yl)carbonyl]-5,6,7,8-tetrahydro-1,6-naphthyridine-3-carboxamide] was 97.8%. In the case of `CC(C)(C)c1ccc(C(=O)N2CCc3cc(C(=O)NO)cnc3C2)cc1` [Compound I-41, 7-(4-tert-butylbenzoyl)-N-hydroxy-5,6,7,8-tetrahydro-1,7-naphthyridine-3-carboxamide], the inhibition at 1.235 µM turned out to be 93.4%. Regarding `O=C(NO)c1ccc2c(n1)CCN(C(=O)c1cc3ccccc3o1)C2` [Compound I-14, 6-(1-benzofuran-2-ylcarbonyl)-N-hydroxy-5,6,7,8-tetrahydro-1,6-naphthyridine-2-carboxamide], the inhibition at 1.235 µM was determined as 89.9%.

For the compound `O=C(NO)c1ccc2c(n1)CCN(C(=O)c1cc3ccccc3s1)C2` [Compound I-49, 6-(1-benzothien-2-ylcarbonyl)-N-hydroxy-5,6,7,8-tetrahydro-1,6-naphthyridine-2-carboxamide], the inhibition at 1.235 µM was determined as 94.1%. The value for `CC(=O)N1CCc2cc(C(=O)NO)cnc2C1` [Compound I-21, 7-acetyl-N-hydroxy-5,6,7,8-tetrahydro-1,7-naphthyridine-3-carboxamide] was 73.9%.

Take `O=C(NO)c1cnc2c(c1)CCN(C(=O)C13CC4CC(CC(O)(C4)C1)C3)C2` [Compound I-26, N-hydroxy-7-[(3-hydroxy-1-adamantyl)carbonyl]-5,6,7,8-tetrahydro-1,7-naphthyridine-3-carboxamide]: the inhibition at 1.235 µM was 94%.

Take `CC(C)(C)C(=O)N1CCc2nc(C(=O)NO)ccc2C1` [Compound I-46, 6-(2,2-dimethylpropanoyl)-N-hydroxy-5,6,7,8-tetrahydro-1,6-naphthyridine-2-carboxamide]: the inhibition at 1.235 µM is 59%. Regarding `O=C(NO)c1ccc2c(n1)CCN(C(=O)c1[nH]c3ccccc3c1-c1ccccc1)C2` [Compound I-7, N-hydroxy-6-[(3-phenyl-1H-indol-2-yl)carbonyl]-5,6,7,8-tetrahydro-1,6-naphthyridine-2-carboxamide], the inhibition at 1.235 µM came out at 79%. Consider `CCCCOc1ccc(S(=O)(=O)N2CCc3nc(C(=O)NO)ccc3C2)cc1` [Compound I-60, 6-[(4-butoxyphenyl)sulfonyl]-N-hydroxy-5,6,7,8-tetrahydro-1,6-naphthyridine-2-carboxamide], for which the inhibition at 1.235 µM was 75.8%. For the compound `O=C(NO)c1cnc2c(c1)CN(Cc1ccccc1)CC2` [Compound I-20, 6-benzyl-N-hydroxy-5,6,7,8-tetrahydro-1,6-naphthyridine-3-carboxamide], the inhibition at 1.235 µM is 58.6%. In the case of `CC1(C(=O)N2CCc3cc(C(=O)NO)cnc3C2)CCCCC1` [Compound I-9, N-hydroxy-7-[(1-methylcyclohexyl)carbonyl]-5,6,7,8-tetrahydro-1,7-naphthyridine-3-carboxamide], the inhibition at 1.235 µM is 95.2%. The value for `O=C(NO)c1ccc2c(n1)CCN(C(=O)Nc1ccc(-c3ccccc3)s1)C2` [Compound I-54, N^2-hydroxy-N^6-(5-phenyl-2-thienyl)-7,8-dihydro-1,6-naphthyridine-2,6(5H)-dicarboxamide] was 67.2%. The value for `CC(C)(C)C(=O)N1CCc2ncc(C(=O)NO)cc2C1` [Compound I-30, 6-(2,2-dimethylpropanoyl)-N-hydroxy-5,6,7,8-tetrahydro-1,6-naphthyridine-3-carboxamide] was 85%; that for `Cc1ccccc1NC(=O)N1CCc2nc(C(=O)NO)ccc2C1` [Compound I-8, N^2-hydroxy-N^6-(2-methylphenyl)-7,8-dihydro-1,6-naphthyridine-2,6(5H)-dicarboxamide] was 40.4%. For the compound `Cn1cccc1C(=O)N1CCc2ncc(C(=O)NO)cc2C1` [Compound I-39, N-hydroxy-6-[(1-methyl-1H-pyrrol-2-yl)carbonyl]-5,6,7,8-tetrahydro-1,6-naphthyridine-3-carboxamide], the inhibition at 1.235 µM came to 92.5%. The value for `O=C(NO)c1cnc2c(c1)CN(C(=O)c1cc3ccccc3o1)CC2` [Compound I-44, 6-(1-benzofuran-2-ylcarbonyl)-N-hydroxy-5,6,7,8-tetrahydro-1,6-naphthyridine-3-carboxamide] was 94.9%. The value for `Cc1nc(-c2ccccn2)sc1C(=O)N1CCc2ncc(C(=O)NO)cc2C1` [Compound I-23, N-hydroxy-6-[(4-methyl-2-pyridin-2-yl-1,3-thiazol-5-yl)carbonyl]-5,6,7,8-tetrahydro-1,6-naphthyridine-3-carboxamide] was 92%; that for `Cc1nc(C(=O)N2CCc3nc(C(=O)NO)ccc3C2)cs1` [Compound I-27, N-hydroxy-6-[(2-methyl-1,3-thiazol-4-yl)carbonyl]-5,6,7,8-tetrahydro-1,6-naphthyridine-2-carboxamide] was 51.2%; that for `O=C(NO)c1ccc2c(n1)CCN(C(=O)C13CC4CC(CC(C4)C1)C3)C2` [Compound I-22, 6-[1-adamantylcarbonyl]-N-hydroxy-5,6,7,8-tetrahydro-1,6-naphthyridine-2-carboxamide] was 90.2%.

Source of the values: US8952163B2, “Substituted hydroxamic acids and uses thereof” (Millennium Pharmaceuticals, Inc., priority 2010, dated 2015).
